Results as given in US7074789B2, “Kinase inhibitors” (Amgen Inc., priority 1999, dated 2006).

Legend:
Format in all cases: biochemical
[1] = target: T1, Lck (Homo sapiens, UniProt P06239); assay: Kinase inhibition assay (33P transfer), Lck; settings: Table 3, class symbols; read-out: Lck-1
T1 construct: Kinases are expressed as either kinase domains or full length constructs; made in house
How it was run: (§1)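 Kinase domains or full-length kinases, GST- or His-tagged and expressed in E. coli or baculovirus/High Five cells, transferred 33PO4 from ATP onto plate-bound poly(Glu,Tyr) 4:1 or poly(Arg,Ser) 3:1. After incubation, plates were washed with 0.5% phosphoric acid and counted by liquid scintillation.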

[2] = target: T2, Zap-70 (Homo sapiens, UniProt P43403); assay: Kinase inhibition assay (33P transfer), Zap-70; settings: Table 3, class symbols; read-out: Zap-1
T2 construct: Kinases are expressed as either kinase domains or full length constructs; made in house
T2 sequence (P43403 1-619): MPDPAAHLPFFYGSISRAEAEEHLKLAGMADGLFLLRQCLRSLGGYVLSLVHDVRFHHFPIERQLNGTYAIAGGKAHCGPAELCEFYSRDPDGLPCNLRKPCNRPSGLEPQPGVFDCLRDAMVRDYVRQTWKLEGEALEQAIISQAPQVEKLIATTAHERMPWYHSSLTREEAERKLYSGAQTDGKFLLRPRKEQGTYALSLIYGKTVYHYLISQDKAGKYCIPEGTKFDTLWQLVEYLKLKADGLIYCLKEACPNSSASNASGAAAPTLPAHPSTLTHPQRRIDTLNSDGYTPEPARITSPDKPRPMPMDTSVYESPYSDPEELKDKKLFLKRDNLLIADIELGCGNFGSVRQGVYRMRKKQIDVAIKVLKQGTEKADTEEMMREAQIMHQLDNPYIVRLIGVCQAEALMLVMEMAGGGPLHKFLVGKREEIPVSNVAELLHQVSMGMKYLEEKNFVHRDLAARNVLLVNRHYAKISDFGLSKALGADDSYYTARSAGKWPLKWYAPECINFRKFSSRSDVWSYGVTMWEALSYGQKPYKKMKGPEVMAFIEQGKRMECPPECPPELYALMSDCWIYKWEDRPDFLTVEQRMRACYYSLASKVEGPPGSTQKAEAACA
How it was run: as §1

[3] = target: T3, Itk (Homo sapiens, UniProt Q08881); assay: Kinase inhibition assay (33P transfer), Itk; settings: Table 3, class symbols; read-out: Itk-1
T3 construct: Kinases are expressed as either kinase domains or full length constructs; made in house
T3 sequence (Q08881 1-620): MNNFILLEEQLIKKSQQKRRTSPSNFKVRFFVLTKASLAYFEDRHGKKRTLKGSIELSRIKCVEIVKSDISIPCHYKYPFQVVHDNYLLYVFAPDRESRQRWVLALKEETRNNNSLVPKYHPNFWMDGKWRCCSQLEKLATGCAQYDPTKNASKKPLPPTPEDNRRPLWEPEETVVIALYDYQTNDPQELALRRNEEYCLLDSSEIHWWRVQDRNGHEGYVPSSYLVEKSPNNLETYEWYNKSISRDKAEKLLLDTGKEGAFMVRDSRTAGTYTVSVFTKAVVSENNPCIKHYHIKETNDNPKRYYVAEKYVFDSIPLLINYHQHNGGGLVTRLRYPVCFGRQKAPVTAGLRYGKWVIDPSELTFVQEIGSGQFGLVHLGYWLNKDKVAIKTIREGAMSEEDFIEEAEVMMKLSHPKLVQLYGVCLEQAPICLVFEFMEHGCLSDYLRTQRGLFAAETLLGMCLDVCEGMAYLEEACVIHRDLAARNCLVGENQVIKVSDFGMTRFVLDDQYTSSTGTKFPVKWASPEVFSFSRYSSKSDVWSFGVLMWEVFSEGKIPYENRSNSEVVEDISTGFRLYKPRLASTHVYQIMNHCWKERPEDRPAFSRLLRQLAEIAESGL
How it was run: (§2)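 IC50: inhibitor concentration lowering 33P incorporation into immobilised substrate by 50%. Label transferred from ATP to poly(Glu,Tyr) 4:1 or poly(Arg,Ser) 3:1 is measured after a 0.5% phosphoric acid wash by liquid scintillation.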

[4] = target: T4, EGFR (Homo sapiens, UniProt P00533); assay: Kinase inhibition assay (33P transfer), EGFR; settings: Table 2, class symbols A-E; read-out: EGFR-1
T4 construct: Kinases are expressed as either kinase domains or full length constructs; made in house
How it was run: as §2

[5] = target: T5, ErbB2 (Homo sapiens, UniProt P04626); assay: Kinase inhibition assay (33P transfer), ErbB2; settings: read-out: ErbB2-2
T5 construct: Kinases are expressed as either kinase domains or full length constructs; made in house
How it was run: as §2

[6] = target: T6, Kdr (Homo sapiens, UniProt P35968); assay: Kinase inhibition assay (33P transfer), Kdr; settings: Table 3, class symbols; read-out: KDR-1
T6 construct: Kinases are expressed as either kinase domains or full length constructs; made in house
How it was run: as §1

[7] = target: T7, c-Met (Homo sapiens, UniProt P08581); assay: Kinase inhibition assay (33P transfer), c-Met; settings: Table 2, class symbols A-E; read-out: Met-1
T7 construct: Kinases are expressed as either kinase domains or full length constructs; made in house
How it was run: as §2

[8] = target: T8, AKT (Homo sapiens, UniProt Q9Y243); assay: Kinase inhibition assay (33P transfer), AKT; settings: Table 2, class symbols A-E; read-out: AKT3-1
T8 construct: Kinases are expressed as either kinase domains or full length constructs; made in house
How it was run: as §1

[9] = target: T9, IGFR-1 (Homo sapiens, UniProt P08069); assay: Kinase inhibition assay (33P transfer), IGFR-1; settings: Table 2, class symbols A-E
T9 construct: Kinases are expressed as either kinase domains or full length constructs; made in house

[10] = target: T10, PDGFRB (Homo sapiens, UniProt P09619); assay: Kinase inhibition assay (33P transfer), PDGFRB; settings: read-out: PDGFRB-1
T10 construct: Kinases are expressed as either kinase domains or full length constructs; made in house

T8 sequence (Q9Y243 whole entry, the tested form may be a part): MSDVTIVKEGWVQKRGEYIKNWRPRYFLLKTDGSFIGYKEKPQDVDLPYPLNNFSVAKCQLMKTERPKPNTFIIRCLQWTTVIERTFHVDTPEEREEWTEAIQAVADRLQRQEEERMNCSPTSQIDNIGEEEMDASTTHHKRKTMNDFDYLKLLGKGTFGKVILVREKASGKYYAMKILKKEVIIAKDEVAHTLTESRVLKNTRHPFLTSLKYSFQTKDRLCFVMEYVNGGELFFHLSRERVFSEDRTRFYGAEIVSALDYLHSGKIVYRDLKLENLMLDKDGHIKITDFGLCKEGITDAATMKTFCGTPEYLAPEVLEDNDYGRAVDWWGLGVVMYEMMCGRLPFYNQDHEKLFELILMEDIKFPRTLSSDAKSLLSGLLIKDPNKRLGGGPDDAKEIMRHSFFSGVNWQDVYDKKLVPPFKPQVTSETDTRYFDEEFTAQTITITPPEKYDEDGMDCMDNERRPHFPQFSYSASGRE
T4 sequence (P00533 25-1210, species assumed): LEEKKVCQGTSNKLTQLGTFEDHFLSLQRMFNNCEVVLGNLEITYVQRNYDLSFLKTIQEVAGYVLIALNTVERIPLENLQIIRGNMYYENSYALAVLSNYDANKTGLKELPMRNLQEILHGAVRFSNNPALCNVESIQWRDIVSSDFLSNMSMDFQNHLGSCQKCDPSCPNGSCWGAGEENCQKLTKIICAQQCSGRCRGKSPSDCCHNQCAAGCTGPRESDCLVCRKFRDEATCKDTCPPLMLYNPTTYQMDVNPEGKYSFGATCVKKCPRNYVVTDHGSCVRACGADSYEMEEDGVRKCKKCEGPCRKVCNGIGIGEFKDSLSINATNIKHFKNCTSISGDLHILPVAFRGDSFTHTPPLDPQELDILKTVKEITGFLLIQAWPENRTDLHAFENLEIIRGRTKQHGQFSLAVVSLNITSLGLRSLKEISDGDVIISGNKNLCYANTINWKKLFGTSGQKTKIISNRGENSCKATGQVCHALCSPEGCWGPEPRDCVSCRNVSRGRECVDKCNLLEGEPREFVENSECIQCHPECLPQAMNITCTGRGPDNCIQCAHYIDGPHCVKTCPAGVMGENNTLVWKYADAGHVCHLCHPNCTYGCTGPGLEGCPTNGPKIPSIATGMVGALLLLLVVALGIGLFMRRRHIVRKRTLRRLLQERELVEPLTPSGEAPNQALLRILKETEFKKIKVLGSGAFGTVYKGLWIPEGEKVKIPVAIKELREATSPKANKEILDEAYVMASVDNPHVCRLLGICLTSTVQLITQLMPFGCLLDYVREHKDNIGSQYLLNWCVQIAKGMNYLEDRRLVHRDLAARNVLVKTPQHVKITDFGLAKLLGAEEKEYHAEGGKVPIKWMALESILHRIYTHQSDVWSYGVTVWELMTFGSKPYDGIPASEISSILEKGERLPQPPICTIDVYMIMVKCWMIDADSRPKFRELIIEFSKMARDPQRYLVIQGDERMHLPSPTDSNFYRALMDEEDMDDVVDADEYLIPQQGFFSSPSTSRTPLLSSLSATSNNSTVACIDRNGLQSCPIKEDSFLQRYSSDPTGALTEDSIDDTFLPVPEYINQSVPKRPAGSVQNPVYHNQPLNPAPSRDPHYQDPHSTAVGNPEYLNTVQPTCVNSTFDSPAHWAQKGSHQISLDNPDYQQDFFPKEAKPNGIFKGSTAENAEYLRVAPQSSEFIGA
T7 sequence (P08581 25-1390): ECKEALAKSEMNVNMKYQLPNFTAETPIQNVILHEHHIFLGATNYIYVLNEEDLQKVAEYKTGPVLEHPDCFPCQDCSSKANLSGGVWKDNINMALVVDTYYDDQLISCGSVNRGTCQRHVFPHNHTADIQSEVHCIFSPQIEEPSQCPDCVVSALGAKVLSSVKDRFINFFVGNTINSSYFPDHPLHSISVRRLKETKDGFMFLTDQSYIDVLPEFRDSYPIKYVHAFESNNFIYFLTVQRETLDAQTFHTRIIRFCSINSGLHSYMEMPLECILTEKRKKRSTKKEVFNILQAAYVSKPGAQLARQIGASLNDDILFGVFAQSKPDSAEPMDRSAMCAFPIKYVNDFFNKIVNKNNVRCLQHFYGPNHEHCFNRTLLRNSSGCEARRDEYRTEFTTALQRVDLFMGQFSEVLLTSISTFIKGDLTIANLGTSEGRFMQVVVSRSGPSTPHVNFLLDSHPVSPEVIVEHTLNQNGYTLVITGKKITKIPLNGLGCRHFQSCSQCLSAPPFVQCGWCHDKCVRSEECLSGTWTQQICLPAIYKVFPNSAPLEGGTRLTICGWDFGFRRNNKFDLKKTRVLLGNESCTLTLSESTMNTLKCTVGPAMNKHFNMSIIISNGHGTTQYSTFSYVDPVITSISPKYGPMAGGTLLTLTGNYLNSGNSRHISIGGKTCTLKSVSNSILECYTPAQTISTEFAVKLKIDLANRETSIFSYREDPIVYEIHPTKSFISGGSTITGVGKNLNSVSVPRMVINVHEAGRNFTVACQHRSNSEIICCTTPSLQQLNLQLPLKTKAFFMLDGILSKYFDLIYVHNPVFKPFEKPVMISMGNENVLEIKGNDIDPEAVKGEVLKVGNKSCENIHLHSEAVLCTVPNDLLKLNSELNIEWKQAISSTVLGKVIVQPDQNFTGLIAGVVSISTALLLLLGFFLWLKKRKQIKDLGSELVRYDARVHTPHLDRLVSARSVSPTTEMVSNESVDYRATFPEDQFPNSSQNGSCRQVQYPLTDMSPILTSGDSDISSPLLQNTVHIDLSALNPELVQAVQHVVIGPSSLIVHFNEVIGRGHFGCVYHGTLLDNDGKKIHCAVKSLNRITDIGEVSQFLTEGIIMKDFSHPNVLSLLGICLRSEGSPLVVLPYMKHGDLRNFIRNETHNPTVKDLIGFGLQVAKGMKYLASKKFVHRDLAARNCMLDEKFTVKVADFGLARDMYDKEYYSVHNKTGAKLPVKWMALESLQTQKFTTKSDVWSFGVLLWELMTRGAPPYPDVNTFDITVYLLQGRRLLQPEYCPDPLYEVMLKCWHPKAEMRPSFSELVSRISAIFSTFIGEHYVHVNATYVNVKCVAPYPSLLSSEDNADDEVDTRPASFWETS
T1 sequence (P06239 whole entry, species assumed, the tested form may be a part): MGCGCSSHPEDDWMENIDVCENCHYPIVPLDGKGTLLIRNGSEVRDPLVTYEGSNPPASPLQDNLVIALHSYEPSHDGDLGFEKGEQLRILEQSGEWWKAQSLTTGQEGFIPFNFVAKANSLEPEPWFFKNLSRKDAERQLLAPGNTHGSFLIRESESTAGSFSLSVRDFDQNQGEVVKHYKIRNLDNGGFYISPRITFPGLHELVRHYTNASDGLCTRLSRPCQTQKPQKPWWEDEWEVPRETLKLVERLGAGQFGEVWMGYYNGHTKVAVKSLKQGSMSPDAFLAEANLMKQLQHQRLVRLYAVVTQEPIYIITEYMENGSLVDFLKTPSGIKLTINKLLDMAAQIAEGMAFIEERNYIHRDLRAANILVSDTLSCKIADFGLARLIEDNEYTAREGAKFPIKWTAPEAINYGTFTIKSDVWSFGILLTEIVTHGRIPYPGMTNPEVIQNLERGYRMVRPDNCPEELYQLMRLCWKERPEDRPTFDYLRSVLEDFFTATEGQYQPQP
T6 sequence (P35968 20-1356, species assumed): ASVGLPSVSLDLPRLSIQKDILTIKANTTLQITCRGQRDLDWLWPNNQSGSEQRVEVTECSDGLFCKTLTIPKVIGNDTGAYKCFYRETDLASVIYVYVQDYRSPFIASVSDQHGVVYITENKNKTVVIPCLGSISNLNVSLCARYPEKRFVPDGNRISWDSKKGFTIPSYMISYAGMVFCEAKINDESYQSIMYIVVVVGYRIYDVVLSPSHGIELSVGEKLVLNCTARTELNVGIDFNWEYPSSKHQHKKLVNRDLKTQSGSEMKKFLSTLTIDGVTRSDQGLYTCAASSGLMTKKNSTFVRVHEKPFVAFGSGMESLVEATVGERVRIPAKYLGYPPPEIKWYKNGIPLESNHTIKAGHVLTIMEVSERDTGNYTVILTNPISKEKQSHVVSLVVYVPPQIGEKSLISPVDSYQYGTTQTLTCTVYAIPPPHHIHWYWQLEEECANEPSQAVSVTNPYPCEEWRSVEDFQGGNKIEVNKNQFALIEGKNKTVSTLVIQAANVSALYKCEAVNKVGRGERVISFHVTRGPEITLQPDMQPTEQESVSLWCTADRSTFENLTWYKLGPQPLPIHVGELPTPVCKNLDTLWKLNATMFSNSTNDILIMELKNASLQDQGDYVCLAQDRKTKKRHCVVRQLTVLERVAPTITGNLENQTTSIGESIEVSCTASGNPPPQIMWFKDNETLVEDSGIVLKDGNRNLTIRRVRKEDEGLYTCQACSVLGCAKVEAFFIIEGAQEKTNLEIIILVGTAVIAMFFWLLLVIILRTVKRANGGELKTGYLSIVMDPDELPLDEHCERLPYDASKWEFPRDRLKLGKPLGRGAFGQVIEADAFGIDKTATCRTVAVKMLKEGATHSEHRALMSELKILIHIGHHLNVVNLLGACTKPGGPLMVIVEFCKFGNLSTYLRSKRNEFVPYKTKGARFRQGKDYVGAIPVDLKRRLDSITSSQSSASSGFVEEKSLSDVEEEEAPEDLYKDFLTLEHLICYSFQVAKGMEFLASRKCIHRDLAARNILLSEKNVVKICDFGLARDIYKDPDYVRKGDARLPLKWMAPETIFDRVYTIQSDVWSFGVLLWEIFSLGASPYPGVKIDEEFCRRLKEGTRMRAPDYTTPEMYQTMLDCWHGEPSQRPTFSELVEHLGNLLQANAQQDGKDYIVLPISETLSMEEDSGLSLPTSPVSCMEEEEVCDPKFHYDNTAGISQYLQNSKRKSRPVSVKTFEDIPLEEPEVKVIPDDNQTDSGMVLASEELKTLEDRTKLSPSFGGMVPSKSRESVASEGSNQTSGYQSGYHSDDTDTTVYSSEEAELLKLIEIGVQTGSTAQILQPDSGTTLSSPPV

IC50 [1] [µM]	IC50 [2] [µM]	IC50 [3] [µM]	IC50 [4] [µM]	IC50 [5] [µM]	IC50 [6] [µM]	IC50 [7] [µM]	IC50 [8] [µM]	IC50 [9] [µM]	IC50 [10] [µM]	Structure (SMILES)
5.11 to 7.46	7.46 to 9.59	5.11 to 7.46	0.852 to 5.11	0.852 to 5.11	5.11 to 7.46	< 0.852	5.11 to 7.46	0.852 to 5.11	0.852 to 5.11	COC(=O)c1ccc(-c2cc(Nc3ncnc(Nc4cccc(Cc5nnn[nH]5)c4)n3)[nH]n2)cc1 [Compound 991]
> 9.79	> 9.79	0.871 to 5.22	> 9.79	> 9.79	> 9.79	> 9.79	> 9.79	> 9.79	0.871 to 5.22	CCOC(=O)c1cccc(Nc2ncnc(Nc3cc(-c4ccc(C(=O)OC)cc4)n[nH]3)n2)c1 [Compound 813]
> 9.52	> 9.52	> 9.52	> 9.52	> 9.52	> 9.52	5.08 to 7.41	> 9.52	> 9.52	< 0.847	COc1cc(Nc2ncnc(-c3cccnc3Nc3cccc(C(C)=O)c3)n2)cc(OC)c1OC [Compound 831]
6.01 to 8.76	8.76 to 11.3	> 11.3	< 1	< 1	< 1	< 1	> 11.3	> 11.3	1 to 6.01	Cc1ccc2c(c1)CCCN2c1ncnc(Nc2cccc(Cc3nnn[nH]3)c2)n1 [Compound 635]
> 9.43	> 9.43	> 9.43	0.838 to 5.03	0.838 to 5.03	0.838 to 5.03	0.838 to 5.03	0.838 to 5.03	5.03 to 7.33	> 9.43	FC(F)(F)Oc1ccc(Nc2ncnc(Nc3ccc4c(cnn4Cc4ccccc4)c3)n2)cc1 [Compound 906]
5.67 to 8.27	> 10.6	5.67 to 8.27	< 0.945	< 0.945	0.945 to 5.67	> 10.6	> 10.6	0.945 to 5.67	8.27 to 10.6	Brc1cccc(Nc2ncnc(Nc3cccc(Cn4ccnn4)c3)n2)c1 [Compound 961]
1.01 to 6.03	> 11.3	< 1.01	< 1.01	1.01 to 6.03	< 1.01	1.01 to 6.03	> 11.3	8.8 to 11.3	1.01 to 6.03	C=CCN(c1cccc(Cl)c1)c1ncnc(Nc2cc(OC)cc(OC)c2)n1 [Compound 722]
> 9.03	> 9.03	> 9.03	> 9.03	> 9.03	> 9.03	> 9.03	> 9.03	> 9.03	> 9.03	COc1cc(Nc2ncnc(-c3cccnc3Nc3ccc(C(F)(F)F)cc3)n2)cc(OC)c1OC [Compound 835]
0.856 to 5.13	> 9.62	> 9.62	< 0.856	< 0.856	0.856 to 5.13	7.49 to 9.62	> 9.62	> 9.62	0.856 to 5.13	COc1ccc(Nc2ncnc(N(C)c3ccc4c(cnn4Cc4ccccc4)c3)n2)cc1OC [Compound 669]
0.787 to 4.72	> 8.85	> 8.85	> 8.85	4.72 to 6.88	< 0.787	> 8.85	0.787 to 4.72	> 8.85	0.787 to 4.72	COc1cc(Nc2ncnc(-c3cccnc3NC(C)c3cccc4ccccc34)n2)cc(OC)c1OC (stereo not shown) [Compound 845]
0.801 to 4.8	7.01 to 9.01	4.8 to 7.01	4.8 to 7.01	0.801 to 4.8	< 0.801	0.801 to 4.8	7.01 to 9.01	4.8 to 7.01	< 0.801	c1cc(Cn2ccnn2)cc(Nc2ncnc(-n3c(Nc4ccc5[nH]ccc5c4)nc4ccccc43)n2)c1 [Compound 963]
> 10.9	> 10.9	5.79 to 8.44	> 10.9	> 10.9	> 10.9	> 10.9	> 10.9	> 10.9	8.44 to 10.9	c1ccc(Cn2ncc3cc(Nc4ncnc(NCCN5CCCC5)n4)ccc32)cc1 [Compound 871]
0.958 to 5.75	0.958 to 5.75	0.958 to 5.75	0.958 to 5.75	0.958 to 5.75	0.958 to 5.75	0.958 to 5.75	5.75 to 8.39	0.958 to 5.75	0.958 to 5.75	COc1cc(Nc2ncnc(Nc3cc(-c4ccco4)[nH]n3)n2)cc(C(F)(F)F)c1 [Compound 821]
0.888 to 5.33	5.33 to 7.77	0.888 to 5.33	< 0.888	< 0.888	< 0.888	< 0.888	< 0.888	0.888 to 5.33	0.888 to 5.33	c1ccc(Cn2ncc3cc(Nc4ncnc(Nc5ccc6ncsc6c5)n4)ccc32)cc1 [Compound 900]
1.09 to 6.56	> 12.3	> 12.3	< 1.09	1.09 to 6.56	1.09 to 6.56	1.09 to 6.56	> 12.3	> 12.3	1.09 to 6.56	CN(c1cccc(Cl)c1)c1ncnc(Nc2ccc3c(cnn3C)c2)n1 [Compound 674]
0.913 to 5.48	> 10.3	> 10.3	< 0.913	< 0.913	0.913 to 5.48	< 0.913	> 10.3	> 10.3	0.913 to 5.48	CN(c1cccc(Br)c1)c1ncnc(Nc2cccc(Cc3nnn[nH]3)c2)n1 [Compound 670]
> 11.5	> 11.5	8.93 to 11.5	< 1.02	1.02 to 6.12	> 11.5	> 11.5	> 11.5	> 11.5	> 11.5	COc1cc(Nc2ncnc(N(C)c3cccc(Cl)c3)n2)cc2ccccc12 [Compound 876]
1.09 to 6.56	> 12.3	> 12.3	< 1.09	< 1.09	1.09 to 6.56	1.09 to 6.56	> 12.3	6.56 to 9.57	1.09 to 6.56	CN(c1cccc(Cl)c1)c1ncnc(Nc2ccc3nn(C)cc3c2)n1 [Compound 675]
> 8.61	> 8.61	> 8.61	> 8.61	0.765 to 4.59	4.59 to 6.7	> 8.61	> 8.61	> 8.61	0.765 to 4.59	COc1cc(Nc2ncnc(-c3cccnc3Nc3cccc(Oc4ccccc4)c3)n2)cc(OC)c1OC [Compound 840]
